Laboratory results as given in patent US20230313181A1, “HISTIDINE-LYSINE POLYMERS AND METHODS FOR DELIVERING MRNA USING THE SAME” (UNIVERSITY OF MARYLAND, BALTIMORE, priority 2019, published 2023).
Entries after “also recorded” stand apart in the source; their conditions may differ. Where no end group is shown, it is not given here.

Key:
MDA-MB-231 cells = experiment: In vitro mRNA transfection with HK polyplexes (luciferase mRNA, luciferase activity); type: cell-based; conditions: for mRNA transfection relative to H3K(+H)4b (in words): 4:1 ratio (HK:mRNA); for effectiveness as carrier of mRNA (in words): luciferase mRNA, HK polyplex; for RLU/μg-Protein (luciferase activity): mRNA 1 μg, 24 h
Description: FIG. 1. Comparison of H3K(+H)4b and H3K4b peptides as carriers of mRNA. To form the HK polyplexes, the mRNA (1 μg) was mixed with 3 different ratios of the HK ([…]) polymer for 30 minutes. The HK polyplexes were then added to the cells for 24 h before the luciferase activity was measured. ****, H3K(+H)4b vs H3K4b, P<0.0001.
In vitro mRNA Transfection. Several HK polymers were examined for their ability to carry a luciferase-expressing mRNA (CleanCap Firefly Luciferase mRNA, Trilink Biotechnologies, Inc, San Diego, CA) into MDA-MB-231 cells (America Type Tissue Culture, Manassas, VA). In brief, 3×10^4 cells were plated into a 24-well plate containing 500 μl of DMEM and 10% fetal bovine serum (ThermoFisher Scientific, Waltham, MA). After 24 h, when the cells were 60 to 80% confluent, the media in each well was changed to Opti-MEM (ThermoFisher Scientific). To prepare HK polyplexes, mRNA (1 μg) in 50 μl of Opti-MEM was briefly mixed well with one of the HK polymers (4 to 12 μg) and maintained at room temperature for 30 min. This polyplex was then added dropwise to the cells. After four h, the Opti-MEM media was removed and replaced with 0.5 ml of DMEM/10% serum (0.5 ml). Twenty-four hours later, the cells were lysed, and the luciferase activity (Promega Corporation, Madison, WI) was measured.
To obtain the data in Table 4, luciferase-expressing mRNA (1 μg) in 50 μl of Opti-MEM was briefly mixed with one of the HK polymers (4, 8, or 12 μg) and maintained at room temperature for 30 min. The resulting polyplexes were added dropwise to the MDA-NM-231 cells and after four h, the Opti-MEM media was removed and replaced with DMEM/10% serum. Twenty-four hours later, the cells were lysed, and the luciferase activity was measured

[1] = prior study [43]; cited from earlier work
human cells = conditions: cited from earlier work
mRNA = experiment: Heparin displacement assays (gel electrophoresis and Sybr Gold dye intercalation); type: physicochemical; conditions: HK:mRNA 4:1 wt/wt
Description: FIG. 4. Heparin Displacement Assays. After HK polyplexes were formed (wt:wt; HK:mRNA; 4 μg:1 μg), different concentrations of heparin […] were incubated with these for 30 min. A. Gel Retardation. The HK polyplexes were loaded on the agarose gel (1%), and electrophoresis was carried out and stained with Sybr Gold. B. Fluorescent dye intercalation. After the HK polyplexes were formed and incubated with several concentrations of heparin, the Sybr Gold nucleic acid dye was incubated with the HK polyplexes for 5 mins. Fluorescence was then measured by a microplate fluorimeter (λex=497 nm, λem=520 nm) (SynergyMx, BioTek). *, P<0.05; ***, P<0.001; H3K4b or H2K vs. H3K(+H)4b.
Heparin Displacement Assays. Heparin displacement assays of HK polyplexes were done with the dye intercalation assay and with gel electrophoresis. A fluorescent assay assessed polyplexes of HK polymer and mRNA (4:1 wt/wt ratio; polymer:mRNA) formed in RNAse/DNAase free water (Corning, Manassas, VA). HK polyplexes were prepared as described previously, followed by the addition of diluted Syber Gold. For detection, working dilutions of the polyplexes (1/5 of volume), water (3/5) and Sybr Gold dye (1/5, 0.2×) were incubated for 5 minutes, and fluorescence was measured by a fluorimeter (Ex=497 nm, Em=520 nm) (SynergyMx, BioTek, Winooski, VT). The control sample was prepared with the same amount of mRNA, water, and Sybr Gold dye. For the heparin displacement, instead of water, heparin salt (Sigma-Aldrich, St. Louis, MO) solutions at different concentrations (0.5, 1, 1.5, 2, 3 μg/μl) were used, and the HK polyplexes were incubated at 37° C. for 30 min before addition of Sybr Gold.
Displacement of mRNA from HK polyplexes with heparin was also done with gel electrophoresis. After HK polyplexes were formed, different concentrations of heparin (0.5, 1.0, 1.5, 2.0, 3.0 μg/μl; volume 20 μl) were incubated with these at 37° C. for 30 min. The polyplexes were then loaded on the agarose gel (1%; 10× BlueJuice Gel loading buffer), and electrophoresis was carried out and stained with SG as described above. […]

[2] = prior studies [27]; cited from earlier work
[3] = prior studies [34, 35, 45]; cited from earlier work
[4] = ratio mRNA:polymer 1:12 (wt:wt)

| Substance | mRNA transfection relative to H3K(+H)4b (in words) (MDA-MB-231 cells) | effectiveness as carrier of mRNA (in words) (MDA-MB-231 cells) | RLU/μg-Protein (luciferase activity) (MDA-MB-231 cells; ratio mRNA:polymer 1:4 (wt:wt)) | RLU/μg-Protein (luciferase activity) (MDA-MB-231 cells; ratio mRNA:polymer 1:8 (wt:wt)) | RLU/μg-Protein (luciferase activity) (MDA-MB-231 cells; [4]) | antimicrobial activity (in words) [1] | cytotoxicity to human cells (in words) (human cells) | fold less effective in transfecting mRNA compared to H3K(+H)4b (MDA-MB-231 cells; 4:1 ratio (HK:mRNA; wt:wt)) | binding/release of mRNA and polyplex stability on exposure to heparin (in words) (mRNA) | carrier of DNA plasmids (in words) [2] | carrier of siRNA (in words) [3] |
| --- | --- | --- | --- | --- | --- | --- | --- | --- | --- | --- | --- |
| H-H3K(+H)4b: four-branched HK polymer, each branch R = HKHHHKHHHKHHHHKHHHK- (SEQ ID NO: 9) (also: one of four branches on a branched lysine core) | did not improve mRNA transfection more than H3K(+H)4b | effective carriers of mRNA; also recorded: markedly more effective as a carrier of mRNA | 1107.5 ± 140.4 RLU/μg-Protein | 874.6 ± 65.2 RLU/μg-Protein | 676.4 ± 25.7 RLU/μg-Protein |  |  |  |  |  |  |
| H3k4b (KHHHKHHHKHHHKHHHK; also: one of four branches on a branched lysine core) |  |  |  |  |  | greater antimicrobial activity | no observed cytotoxicity to human cells |  |  |  |  |
| H3K(1,3+H)4b: four-branched HK polymer, each branch R = KHHHKHHHHKHHHKHHHHK- (SEQ ID NO: 14) (also: one of four branches on a branched lysine core) |  |  | 518.3 ± 134.7 RLU/μg-Protein | 427.7 ± 18.1 RLU/μg-Protein | 378 ± 5.2 RLU/μg-Protein |  |  | about 2.5 fold |  |  |  |
| H3K(1+H)4b: four-branched HK polymer, each branch R = KHHHKHHHKHHHKHHHHK- (SEQ ID NO: 12) (also: one of four branches on a branched lysine core) |  | poor carriers of mRNA | 24.3 ± 4.5 RLU/μg-Protein | 15.0 ± 3.6 RLU/μg-Protein | 7.3 ± 2.5 RLU/μg-Protein |  |  |  |  |  |  |
| H3K(3+H)4b: four-branched HK polymer, each branch R = KHHHKHHHHKHHHKHHHK- (SEQ ID NO: 13) (also: one of four branches on a branched lysine core) |  | poor carriers of mRNA | 61.7 ± 5.7 RLU/μg-Protein | 68.7 ± 3.1 RLU/μg-Protein | 59.0 ± 7.5 RLU/μg-Protein |  |  |  |  |  |  |
| H4K4b: four-branched HK polymer, each branch R = KHHHHKHHHHKHHHHKHHHHK- (SEQ ID NO: 11) (also: one of four branches on a branched lysine core) | did not enhance mRNA transfection | effective carriers of mRNA | 896.4 ± 112.6 RLU/μg-Protein | 821.8 ± 115.6 RLU/μg-Protein | 522.4 ± 69.2 RLU/μg-Protein |  |  |  |  |  |  |
| H2K4b: four-branched HK polymer on three-lysine core, each branch R = KHKHHKHHKHHKHHKHHKHK- (SEQ ID NO: 5) (also: one of four branches on a three-lysine core) |  |  | 546.7 ± 70.1 RLU/μg-Protein | 132.3 ± 58.5 RLU/μg-Protein | 194.7 ± 18.4 RLU/μg-Protein |  |  |  | too stable | good carrier of large molecular weight DNA plasmids | poor carrier of relatively low molecular weight siRNA |
